In experiment [1] the test system is liver culture slice. Kind of experiment: Ex vivo liver slice culture from Per2::LUC mice, lumicycle. In kind it is cell-based, mouse. Particulars: 100 μM at Per2::LUC peak. The text has this: Tissue culture, drug treatment and Real-Time Monitoring of Circadian Oscillations: 8 week-old male mPer2 Luciferase knockin mice were Sacrificed cervical dislocation. Then wipe the skin and neck with cotton containing 70% ethanol in a sterile hood. For SCN slice culture, firstly remove the eye balls from the head with scissors, decapitate and cut the skin. Then open the skull, remove all bone until the olfactory bulbs can be seen, cut the optic nerve between the olfactory bulbs and the hemispheres, and finally harvest the whole brain into ice cold HBSS. Trim the brain in HBSS by removing the cerebellum and olfactory bulbs. Attach the brain to a sample tray by glue with the rostral tip upwards and ventral surface closest to the cutting blade, then immediately fill the tray with ice cold HBSS and set the tray to the vibratome. Set the vibratome frequency at the maximum and the speed to the medium. To reach the SCN area quickly, the start cutting off thicker sections should be 500-800 μm. Reduce the sections thicker to 100 μm when the optic chiasm becomes wider. When the two SCN nuclei start to appear, collect the slice with transfer pipettes and check slices under dissecting microscope. […] Data was extract and analyzed with LumiCycle Analysis software. […]

In experiment [2] the test system is C57BL/6j mice. As to the kind of experiment: Wheel running jet-lag experiment, 8 h phase advance or delay. In kind it is in vivo, mouse. The procedure: Wheel running experiment: Male C57Bj/6 mice at 7 w old were purchased from the Nanjing Biomedical Research Institute of Nanjing University introduced from Jackson Laboratory, housed in individually wheel-running cage in a temperature- and humidity-controlled SPF facility, with ad libitum access to food and water. The animals were entrained under 12 h light/dark photoperiod for two weeks to synchronize the endogenous circadian clock of the mice to the ambient light-dark cycle, light intensity is about 50˜100 lux. After synchronization, light-dark cycles were 8-hr phase-advanced or phase-delayed. On the day of light-dark cycle was shifted advance, mice were firstly fasted at CT 3, then 15 mg/kg bw CA03, 15 and 30 mg/kg bw pro-CA03, 15 and 30 mg/kg bw pro-CA04 or DMSO were intraperitoneal injection at CT 12, and light on time (CT 0) was shifted from 7 am to 11 pm), finally re-feed and inject drug again at CT 23 of the old light-dark cycle. CA03 and pro-CA04 were firstly dissolved in DMSO to the concentration of 200 μg/μl, then dilute with saline to the final concentration of 1000 μg/ml for intraperitoneal injection. Pro-03 was firstly dissolved in DMSO to the concentration of 200 μg/μl, then dilute with 2% tween80 (in sterilized water) to the final concentration of 1000 μg/ml for intraperitoneal injection. On the day of light-dark cycle was shifted delayed, mice were firstly fasted at ZT 3, then 15 mg/kg bw CA03, 15 and 30 mg/kg bw pro-CA03, 15 and 30 mg/kg bw pro-CA04 or DMSO were intraperitoneal injection at CT 12, and light off time (CT12) was shifted from […] to 3 am), finally re-feed and inject drug again at CT 23 of the old light-dark cycle. Locomotor activity was recorded in 10-min bins wheel running (Actimetrics), and the data obtained were analysed with Clocklab software (Actimetrics). All animal experimental procedures were performed in accordance with the protocol approved by the Institutional Animal Care and Usage Committee (IACUC) of the National Institute of Biological Sciences, Beijing.
Under a standard jet-lag protocol {Yamaguchi, 2013}, wild-type C57BL/6j mice usually take ˜10 d to adapt to 8 h phase advance. […] Similarly, the drug treated mice adapt faster to the phase delay (FIG. 2D&2E).
To test whether cordycepin function in vivo, we firstly tested luciferase signal level by live imaging of Per2:LUC mice after intraperitoneal injection of 15 mg/kg cordycepin or DMSO. We found cordycepin induce more than 4 folds increase of luciferase signal in liver when compared with DMSO control (A). […] We also reconfirmed endogenous transcription rate of core clock genes by measuring the pre-mRNA with qPCR in the liver (B). We examined RRE genes (including Bmal1, Clock, Npas2, Cry1 and Nfil3), internal control genes (including Gapdh, Tbp and Actin) and E-box genes (including Per1, Per2, Dbp and Nr1d1). We designed at least 2 primers for each gene. […] Prior evaluation the jet-leg cure ability of cordycepin, we detected whether cordycepin and it's prodrug pro-CA03 can penetrate BBB. We injected cordycepin or pro-CA03 via tail vein and time course sampled CSF and analyzed cordycepin pro-CA03 level with HPLC-MASS method. […] Finally we evaluated the jet-leg cure ability of cordycepin, pro-CA03 and Pro-CA04 with mice behavioral experiment. Wild-type C57BL/6j mice typically take ˜10 days to adapt to an 8 h phase advance. […]

Experiment [3] has as its system Per2::LUC adult murine fibroblasts. Kind of experiment: Time-of-admission phase shift and amplitude in Per2::LUC adult murine fibroblasts. In kind it is cell-based, mouse. Here is the method:
In above investigation, we found cordycepin (cordycepin-like nucleosides) shift the circadian phase, therefore it could be seemed as a circadian time giver (zeitgeiber). One prominent character of zeitgeiber is phase dependent function. Therefore, we further tested whether cordycepin also has the character. We use both transcriptional reporter (Per2:luc U2OS cells) translational reporter (Per2::LUC adult murine fibroblasts) model to investigate this character. The two reporter were seeded in 3.5 cm dish, transferred into lumicycle, and treated with cordycepin (100 μM in Per2:luc U2OS cells and 25 μM in Per2::LUC adult murine fibroblasts) every 2 hours from CT 0 to CT 24. 3 days after treatment and data analysis, we found in both reporter cells, cordycepin show highly “time-of-admission” dependent phase-change, 12 h phase shift when applied at CT10 and nearly 0 h phase shift when applied at CT 20 (F). […] To test this, we treated nearly damped Per2::LUC adult murine fibroblasts at CT 20 with DMSO or 25 μM cordycepin.

For the molecule `Nc1ncnc2c1ncn2[C@@H]1O[C@H](CO)C[C@H]1O` [Cordycepin, 3′-deoxy-adenosine], the “clock phase of liver slice versus DMSO” value in experiment [1] is on record as “totally antiphase”. Further, the “adaptation time in phase-delay assay” value in experiment [2] (DMSO 6 days) was 3 days. In addition, the “adaptation time to 8 h phase advance” value in experiment [2] (twice injection, DMSO ~10 d) amounted to 4 days. Also, the phase shift is listed as 12 h in experiment [3] (25 μM applied at CT10) and approximately 0 h in experiment [3] (25 μM applied at CT 20). Moreover, the amplitude result in experiment [3] (25 μM at CT 20, nearly damped fibroblasts) is “increase the amplitude”.
